Data as given in PMC11397024, “Strategic Fluorination to Achieve a Potent, Selective, Metabolically Stable, and Orally Bioavailable Inhibitor of CSNK2” (Molecules, 2024).

How the values were obtained:
Test in all cases: NanoBRET K192
Type in all cases: cell-based
Conditions in all cases: HEK293
ABL2 = target: T1, ABL2 (Homo sapiens, UniProt P42684)
T1 construct: purchased Promega (NanoBRET Target Engagement K192 Kinase Selectivity System)
Experimental: (§1) The K192 selectivity assay was run according to the Draft Promega technical manual, NanoBRET^TM Target Engagement K192 Kinase Selectivity System. Reagents were supplied by Promega (Promega NP 4101). For the assay, DNA from the prepared kinase vector panel plates A and B were mixed with Fugene in 96-well plates (Corning 3917) and incubated at room temperature for 30 min. The NanoLuc® Low control vector pNL1.1.CMV [Nluc/CMV] Vector (Cat.# N1091) and the transfection control vector NanoLuc®-HIPK2 Fusion Vector (Cat.# NV3221) were used as controls.
(§2) HEK293 cells were grown to 75–95% confluency in DMEM (Gibco 11995-065) supplemented with FBS (Avantor 97068-085) at 37 °C in […]. On the first day of the assay, cells were harvested and resuspended in Opti-MEM (Gibco 11058-021) supplemented with 1% FBS (Avantor 97068-085) at 2.5 × 10^5 cells per mL. A volume of 60 μL of cell suspension was mixed with 10 μL of prepared DNA (10X concentration) and 30 μL of Fugene (30 μL/mL in Opti-MEM) as outlined by Promega and incubated overnight at 37 °C in a 5% CO2 incubator.
(§3) On day two of the assay, 5 μL of 20X K10 tracer was prepared and added at concentrations recommended by Promega. Then, 10 μL of test compounds at 100 μM in Opti-MEM (diluted from a 10 mM solution in DMSO) was added to the test wells while an equivalent volume of Opti-MEM was added to the high-control wells. Plates were kept at 37 °C in a 5% CO2 incubator for two hours. After two hours, plates were allowed to equilibrate to room temperature for 15 min. A solution of 3X Complete Substrate plus Inhibitor Solution was freshly prepared, consisting of a 1:166 dilution of NanoBRET™ Nano-Glo® Substrate plus a 1:500 dilution of Extracellular NanoLuc® Inhibitor in Opti-MEM® medium without serum or phenol red. A 50 μL volume of the 3X Complete Substrate plus Inhibitor Solution was added to each assay well, including control wells. After 2–3 min, the plate was shaken at 300 RPM for 10 s, and the donor emission wavelength (450 nm) and acceptor emission wavelength (610 nm) were measured using the Glomax® Discover System.
(§4) As a quality check, the donor signal-to-background ratio was calculated for each individual kinase by dividing the mean donor signal for each kinase by the mean donor signal for the signal-to-background control wells. Fractional occupancy of the test drug for each kinase was determined using the following formula:Occupancy (%) = [1 − (Sample − Bottom)/(Top − Bottom)] × 100 where

AURKB = target: T2, AURKB (Homo sapiens, UniProt Q96GD4)
T2 construct: purchased Promega (NanoBRET Target Engagement K192 Kinase Selectivity System)
Experimental: as §1, §2, §3, §4

BMP2K = target: T3, BMP2K (Homo sapiens, UniProt Q9NSY1)
T3 construct: purchased Promega (NanoBRET Target Engagement K192 Kinase Selectivity System)
Experimental: as §1, §2, §3, §4

BRSK1 = target: T4, BRSK1 (Homo sapiens, UniProt Q8TDC3)
T4 construct: purchased Promega (NanoBRET Target Engagement K192 Kinase Selectivity System)
Experimental: as §1, §2, §3, §4

BRSK2 = target: T5, BRSK2 (Homo sapiens, UniProt Q8IWQ3)
T5 construct: purchased Promega (NanoBRET Target Engagement K192 Kinase Selectivity System)
Experimental: as §1, §2, §3, §4

CDK15 + Y = target: T6, CDK15 + Y (Homo sapiens, UniProt Q96Q40)
T6 construct: purchased Promega (NanoBRET Target Engagement K192 Kinase Selectivity System)
T6 sequence (Q96Q40 whole entry): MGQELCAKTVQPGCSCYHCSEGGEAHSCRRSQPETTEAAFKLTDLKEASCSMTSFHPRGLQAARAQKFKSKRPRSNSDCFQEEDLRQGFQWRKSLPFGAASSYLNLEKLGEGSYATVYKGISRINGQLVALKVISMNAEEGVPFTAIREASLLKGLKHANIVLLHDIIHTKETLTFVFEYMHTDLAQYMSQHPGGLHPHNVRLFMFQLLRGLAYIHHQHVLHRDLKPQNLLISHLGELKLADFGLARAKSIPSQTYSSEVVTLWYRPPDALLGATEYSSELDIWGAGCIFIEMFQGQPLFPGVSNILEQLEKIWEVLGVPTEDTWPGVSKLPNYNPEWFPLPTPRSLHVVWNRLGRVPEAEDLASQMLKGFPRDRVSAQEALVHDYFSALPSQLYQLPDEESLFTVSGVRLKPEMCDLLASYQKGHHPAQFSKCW
T6 sequence (Q8ND76 whole entry partner): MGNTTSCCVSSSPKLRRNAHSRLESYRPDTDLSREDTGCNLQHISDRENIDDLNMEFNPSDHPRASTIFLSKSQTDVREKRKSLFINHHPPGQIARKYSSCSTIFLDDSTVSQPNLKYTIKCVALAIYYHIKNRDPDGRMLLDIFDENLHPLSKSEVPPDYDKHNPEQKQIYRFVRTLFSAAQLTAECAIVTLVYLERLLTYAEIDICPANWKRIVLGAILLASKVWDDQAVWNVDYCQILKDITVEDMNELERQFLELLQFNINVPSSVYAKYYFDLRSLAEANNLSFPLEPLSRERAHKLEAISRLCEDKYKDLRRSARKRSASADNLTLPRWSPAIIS
Experimental: as §1, §2, §3, §4

CDK9 + K = target: T7, CDK9 + K (Homo sapiens, UniProt P50750)
T7 construct: purchased Promega (NanoBRET Target Engagement K192 Kinase Selectivity System)
Experimental: as §1, §2, §3, §4

EPHA1 = target: T8, EPHA1 (Homo sapiens, UniProt P21709)
T8 construct: purchased Promega (NanoBRET Target Engagement K192 Kinase Selectivity System)
Experimental: as §1, §2, §3, §4

EPHA7 = target: T9, EPHA7 (Homo sapiens, UniProt Q15375)
T9 construct: host or cells: HEK293
T9 sequence (Q15375 28-998): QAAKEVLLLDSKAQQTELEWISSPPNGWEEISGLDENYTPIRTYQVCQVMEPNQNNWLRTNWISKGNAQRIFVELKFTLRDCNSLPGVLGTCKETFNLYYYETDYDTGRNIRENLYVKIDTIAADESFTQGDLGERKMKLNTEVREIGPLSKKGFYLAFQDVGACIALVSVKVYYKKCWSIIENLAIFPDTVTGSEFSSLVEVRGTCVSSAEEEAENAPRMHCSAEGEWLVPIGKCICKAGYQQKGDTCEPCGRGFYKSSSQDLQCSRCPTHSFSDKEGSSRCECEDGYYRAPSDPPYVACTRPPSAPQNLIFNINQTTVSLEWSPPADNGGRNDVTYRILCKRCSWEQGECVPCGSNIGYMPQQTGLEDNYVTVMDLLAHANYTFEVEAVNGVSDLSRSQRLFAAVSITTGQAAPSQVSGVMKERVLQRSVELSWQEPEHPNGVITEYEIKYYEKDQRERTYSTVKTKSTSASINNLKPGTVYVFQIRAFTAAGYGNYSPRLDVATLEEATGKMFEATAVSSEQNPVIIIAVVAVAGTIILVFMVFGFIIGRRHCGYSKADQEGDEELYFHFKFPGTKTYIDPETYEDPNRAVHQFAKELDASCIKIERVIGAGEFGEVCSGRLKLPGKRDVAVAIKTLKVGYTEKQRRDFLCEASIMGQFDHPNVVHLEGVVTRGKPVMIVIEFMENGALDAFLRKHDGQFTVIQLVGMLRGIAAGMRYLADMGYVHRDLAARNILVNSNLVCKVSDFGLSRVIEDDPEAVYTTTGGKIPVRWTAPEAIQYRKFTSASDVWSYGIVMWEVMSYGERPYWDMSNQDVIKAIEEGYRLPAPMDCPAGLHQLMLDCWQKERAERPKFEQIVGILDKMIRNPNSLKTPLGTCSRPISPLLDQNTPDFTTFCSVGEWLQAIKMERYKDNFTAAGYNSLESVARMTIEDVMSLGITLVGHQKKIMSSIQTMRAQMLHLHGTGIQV
Experimental: as §1, §2, §3, §4

EPHB4 = target: T10, EPHB4 (Homo sapiens, UniProt P54760)
T10 construct: purchased Promega (NanoBRET Target Engagement K192 Kinase Selectivity System)
Experimental: as §1, §2, §3, §4

ERN2 = target: T11, ERN2 (Homo sapiens, UniProt Q76MJ5)
T11 construct: purchased Promega (NanoBRET Target Engagement K192 Kinase Selectivity System)
Experimental: as §1, §2, §3, §4

FLT3 = target: T12, FLT3 (Homo sapiens, UniProt P36888)
T12 construct: host or cells: HEK293
Experimental: as §1, §2, §3, §4

LIMK1 = target: T13, LIMK1 (Homo sapiens, UniProt P53667)
T13 construct: purchased Promega (NanoBRET Target Engagement K192 Kinase Selectivity System)
Experimental: as §1, §2, §3, §4

MAP3K3 = target: T14, MAP3K3 (Homo sapiens, UniProt Q99759)
T14 construct: purchased Promega (NanoBRET Target Engagement K192 Kinase Selectivity System)
T14 sequence (Q99759 whole entry): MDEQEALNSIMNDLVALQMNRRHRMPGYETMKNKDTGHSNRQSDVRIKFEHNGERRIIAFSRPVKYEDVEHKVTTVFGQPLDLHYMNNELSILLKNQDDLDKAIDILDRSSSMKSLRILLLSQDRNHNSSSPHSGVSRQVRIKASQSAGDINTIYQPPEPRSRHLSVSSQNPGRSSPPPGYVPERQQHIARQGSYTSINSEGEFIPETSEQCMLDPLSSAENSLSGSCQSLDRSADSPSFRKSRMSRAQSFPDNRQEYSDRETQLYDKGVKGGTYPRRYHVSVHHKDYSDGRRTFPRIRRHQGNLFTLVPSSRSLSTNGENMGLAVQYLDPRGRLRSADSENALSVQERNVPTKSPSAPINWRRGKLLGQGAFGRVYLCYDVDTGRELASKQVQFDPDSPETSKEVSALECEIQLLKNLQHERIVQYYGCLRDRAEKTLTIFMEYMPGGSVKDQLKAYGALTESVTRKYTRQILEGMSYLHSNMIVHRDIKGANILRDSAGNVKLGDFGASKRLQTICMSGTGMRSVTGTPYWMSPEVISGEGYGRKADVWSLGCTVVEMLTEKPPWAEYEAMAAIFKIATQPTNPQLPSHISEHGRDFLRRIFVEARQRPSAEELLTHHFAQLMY
Experimental: as §1, §2, §3, §4

MAP4K5 = target: T15, MAP4K5 (Homo sapiens, UniProt Q9Y4K4)
T15 construct: purchased Promega (NanoBRET Target Engagement K192 Kinase Selectivity System)
Experimental: as §1, §2, §3, §4

MELK = target: T16, MELK (Homo sapiens, UniProt Q14680)
T16 construct: purchased Promega (NanoBRET Target Engagement K192 Kinase Selectivity System)
Experimental: as §1, §2, §3, §4

NEK11 = target: T17, NEK11 (Homo sapiens, UniProt Q8NG66)
T17 construct: purchased Promega (NanoBRET Target Engagement K192 Kinase Selectivity System)
T17 sequence (Q8NG66 whole entry): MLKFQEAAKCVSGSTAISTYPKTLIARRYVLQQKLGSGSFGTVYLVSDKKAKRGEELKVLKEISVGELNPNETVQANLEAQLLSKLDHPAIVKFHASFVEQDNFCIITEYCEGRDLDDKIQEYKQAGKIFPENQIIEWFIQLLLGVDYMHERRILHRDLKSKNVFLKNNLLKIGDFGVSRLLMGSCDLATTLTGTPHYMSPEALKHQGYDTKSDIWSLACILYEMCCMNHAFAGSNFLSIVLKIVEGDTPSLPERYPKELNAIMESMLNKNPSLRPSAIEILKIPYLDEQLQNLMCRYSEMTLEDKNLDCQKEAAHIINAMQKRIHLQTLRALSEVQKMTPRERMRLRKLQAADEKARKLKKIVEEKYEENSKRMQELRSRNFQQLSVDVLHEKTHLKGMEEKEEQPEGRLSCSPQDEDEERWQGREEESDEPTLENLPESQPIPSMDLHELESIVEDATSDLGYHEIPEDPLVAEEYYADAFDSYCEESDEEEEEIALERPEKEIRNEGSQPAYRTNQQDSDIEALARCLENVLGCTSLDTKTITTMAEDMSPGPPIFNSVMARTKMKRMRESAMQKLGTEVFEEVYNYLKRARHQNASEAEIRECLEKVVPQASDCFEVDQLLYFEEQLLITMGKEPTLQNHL
Experimental: as §1, §2, §3, §4

PHKG2 = target: T18, PHKG2 (Homo sapiens, UniProt P15735)
T18 construct: purchased Promega (NanoBRET Target Engagement K192 Kinase Selectivity System)
Experimental: as §1, §2, §3, §4

PLK4 = target: T19, PLK4 (Homo sapiens, UniProt O00444)
T19 construct: purchased Promega (NanoBRET Target Engagement K192 Kinase Selectivity System)
Experimental: as §1, §2, §3, §4

PTK2 = target: T20, PTK2 (Homo sapiens, UniProt Q05397)
T20 construct: purchased Promega (NanoBRET Target Engagement K192 Kinase Selectivity System)
Experimental: as §1, §2, §3, §4

RIOK2 = target: T21, RIOK2 (Homo sapiens, UniProt Q9BVS4)
T21 construct: purchased Promega (NanoBRET Target Engagement K192 Kinase Selectivity System)
T21 sequence (Q9BVS4 whole entry): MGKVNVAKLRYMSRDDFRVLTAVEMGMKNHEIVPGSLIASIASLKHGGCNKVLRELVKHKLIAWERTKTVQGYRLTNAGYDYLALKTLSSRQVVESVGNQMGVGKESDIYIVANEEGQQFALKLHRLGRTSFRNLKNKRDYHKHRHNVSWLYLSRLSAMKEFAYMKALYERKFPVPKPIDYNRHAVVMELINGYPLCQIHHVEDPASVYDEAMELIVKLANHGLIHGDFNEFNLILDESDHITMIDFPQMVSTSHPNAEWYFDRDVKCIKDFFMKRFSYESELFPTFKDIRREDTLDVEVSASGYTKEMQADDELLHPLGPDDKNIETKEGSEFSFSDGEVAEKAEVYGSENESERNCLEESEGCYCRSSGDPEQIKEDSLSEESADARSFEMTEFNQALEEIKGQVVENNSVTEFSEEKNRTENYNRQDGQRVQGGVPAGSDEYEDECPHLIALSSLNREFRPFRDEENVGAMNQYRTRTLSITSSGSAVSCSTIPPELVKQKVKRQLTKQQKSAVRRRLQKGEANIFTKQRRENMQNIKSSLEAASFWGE
Experimental: as §1, §2, §3, §4

RPS6KA3 = target: T22, RPS6KA3 (Homo sapiens, UniProt P51812)
T22 construct: purchased Promega (NanoBRET Target Engagement K192 Kinase Selectivity System)
T22 sequence (P51812 whole entry): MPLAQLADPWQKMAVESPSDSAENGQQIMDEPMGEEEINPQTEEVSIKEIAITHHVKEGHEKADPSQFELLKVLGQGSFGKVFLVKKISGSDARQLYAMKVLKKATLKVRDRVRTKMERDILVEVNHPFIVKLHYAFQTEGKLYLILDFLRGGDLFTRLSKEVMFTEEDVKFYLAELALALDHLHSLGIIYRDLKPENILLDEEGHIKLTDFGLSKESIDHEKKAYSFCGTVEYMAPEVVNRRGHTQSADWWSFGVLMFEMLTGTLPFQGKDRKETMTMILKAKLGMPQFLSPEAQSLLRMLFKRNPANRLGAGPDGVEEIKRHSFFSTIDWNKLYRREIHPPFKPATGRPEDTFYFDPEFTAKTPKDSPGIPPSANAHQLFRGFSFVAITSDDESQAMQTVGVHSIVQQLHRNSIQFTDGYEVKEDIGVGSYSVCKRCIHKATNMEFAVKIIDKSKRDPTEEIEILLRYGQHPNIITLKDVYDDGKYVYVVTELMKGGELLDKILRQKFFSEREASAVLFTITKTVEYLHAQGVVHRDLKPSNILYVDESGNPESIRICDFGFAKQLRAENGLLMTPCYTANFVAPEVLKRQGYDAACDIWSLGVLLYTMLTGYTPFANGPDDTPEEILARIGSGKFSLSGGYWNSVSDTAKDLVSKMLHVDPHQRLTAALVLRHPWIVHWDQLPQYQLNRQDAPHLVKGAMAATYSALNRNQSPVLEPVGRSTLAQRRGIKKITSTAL
Experimental: as §1, §2, §3, §4

SGK1 = target: T23, SGK1 (Homo sapiens, UniProt O00141)
T23 construct: purchased Promega (NanoBRET Target Engagement K192 Kinase Selectivity System)
Experimental: as §1, §2, §3, §4

STK16 = target: T24, STK16 (Homo sapiens, UniProt O75716)
T24 construct: purchased Promega (NanoBRET Target Engagement K192 Kinase Selectivity System)
Experimental: as §1, §2, §3, §4

STK32B = target: T25, STK32B (Homo sapiens, UniProt Q9NY57)
T25 construct: purchased Promega (NanoBRET Target Engagement K192 Kinase Selectivity System)
Experimental: as §1, §2, §3, §4

TNNI3K = target: T26, TNNI3K (Homo sapiens, UniProt Q59H18)
T26 construct: purchased Promega (NanoBRET Target Engagement K192 Kinase Selectivity System)
Experimental: as §1, §2, §3, §4

ULK2 = target: T27, ULK2 (Homo sapiens, UniProt Q8IYT8)
T27 construct: purchased Promega (NanoBRET Target Engagement K192 Kinase Selectivity System)
Experimental: as §1, §2, §3, §4

WEE1 = target: T28, WEE1 (Homo sapiens, UniProt P30291)
T28 construct: purchased Promega (NanoBRET Target Engagement K192 Kinase Selectivity System)
T28 sequence (P30291 whole entry): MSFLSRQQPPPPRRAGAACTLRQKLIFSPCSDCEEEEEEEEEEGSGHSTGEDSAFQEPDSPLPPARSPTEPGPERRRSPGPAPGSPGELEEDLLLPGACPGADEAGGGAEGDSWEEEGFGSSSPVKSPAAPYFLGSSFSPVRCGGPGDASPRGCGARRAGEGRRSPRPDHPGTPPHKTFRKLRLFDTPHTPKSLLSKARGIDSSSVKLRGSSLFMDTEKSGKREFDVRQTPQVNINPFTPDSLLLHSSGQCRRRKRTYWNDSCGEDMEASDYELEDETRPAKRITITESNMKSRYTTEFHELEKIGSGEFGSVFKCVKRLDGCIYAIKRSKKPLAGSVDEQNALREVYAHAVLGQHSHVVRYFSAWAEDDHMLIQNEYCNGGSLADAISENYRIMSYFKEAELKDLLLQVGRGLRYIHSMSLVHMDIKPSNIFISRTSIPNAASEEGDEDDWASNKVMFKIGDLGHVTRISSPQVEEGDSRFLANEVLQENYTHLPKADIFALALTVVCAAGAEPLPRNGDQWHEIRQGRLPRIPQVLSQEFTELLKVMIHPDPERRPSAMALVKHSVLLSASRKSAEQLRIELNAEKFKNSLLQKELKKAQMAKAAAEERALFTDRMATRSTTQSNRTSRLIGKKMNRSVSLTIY
Experimental: as §1, §2, §3, §4

With `CCC(=O)Nc1cc(Nc2cc(NC3CC3)n3ncc(C#N)c3n2)c(F)cc1N1CCC[C@H](NC)C1` [Compound 2, (S)-N-(5-((3-cyano-7-(cyclopropylamino)pyrazolo[1,5-a]pyrimidin-5-yl)amino)-4-fluoro-2-(3-(methylamino)piperidin-1-yl)phenyl)propionamide] the receptor occupancy at 10 µM (ABL2) was 9.4%, the receptor occupancy at 10 µM (AURKB) was 1.4% and the receptor occupancy at 10 µM (BMP2K) was 7.6%. The receptor occupancy at 10 µM (BRSK1) was 17.7%, the receptor occupancy at 10 µM (BRSK2) was 13.6% and the receptor occupancy at 10 µM (CDK15 + Y) was 26.5%. For the same compound, the receptor occupancy at 10 µM (CDK9 + K) was 19.8%, the receptor occupancy at 10 µM (EPHA1) was 7.7% and the receptor occupancy at 10 µM (EPHA7) was -2.5%. It also gave a receptor occupancy at 10 µM (EPHB4) of 4.4%, a receptor occupancy at 10 µM (ERN2) of 9.2% and a receptor occupancy at 10 µM (FLT3) of -13.5%. For the same compound, the receptor occupancy at 10 µM (LIMK1) was 6.6%, the receptor occupancy at 10 µM (MAP3K3) was 10.1% and the receptor occupancy at 10 µM (MAP4K5) was 8.5%. The receptor occupancy at 10 µM (MELK) was 24.5%, the receptor occupancy at 10 µM (NEK11) was 19.1% and the receptor occupancy at 10 µM (PHKG2) was 29.7%. The receptor occupancy at 10 µM (PLK4) was 3.8%, the receptor occupancy at 10 µM (PTK2) was 15.7% and the receptor occupancy at 10 µM (RIOK2) was -1.8%. The receptor occupancy at 10 µM (RPS6KA3) was 1.8%, the receptor occupancy at 10 µM (SGK1) was 1.5% and the receptor occupancy at 10 µM (STK16) was 16.4%. For the same compound, the receptor occupancy at 10 µM (STK32B) was 5.9%, the receptor occupancy at 10 µM (TNNI3K) was 8% and the receptor occupancy at 10 µM (ULK2) was 15.5%. The receptor occupancy at 10 µM (WEE1) was 17.8%.
